One experiment deals with T1, LTRPC2 NUDT9-H (Homo sapiens, UniProt O94759).
T1 construct: an artificial start codon, amino acids 1197-1503, a stop codon; artificial initiating Met (artificial start codon) (N); made in house; host or cells: E. coli BL21 (DE3), pET-24d
Nature of the experiment: Nudix-type hydrolase activity towards a panel of substrates, NUDT9-H region of LTRPC2. It is filed as biochemical. The conditions noted are these: purified bacterially expressed NUDT9-H of LTRPC2. As to the method: (§1) FIG. 2(B) is a characterization of the enzymatic activity of NUDT9 and NUDT9-H. Purified preparations of NUDT9 and NUDT9-H were screened for Nudix-type activity towards a panel of substrates as described in the methods section. Km and Vmax were calculated by non-linear regression analysis of Lineweaver-Burke plots.
(§2) BL21 (DE3) cells containing the respective expression plasmids were grown at 37° C. in LB broth on a shaker to an A600 of about 0.6 and induced by the addition of isopropyl-b-D-thiogalactopyranoside to a concentration of 1 mM. The cells were grown for an additional 4 h, harvested, washed by suspension in isotonic saline, centrifuged in pre-weighed centrifuge tubes, and the packed cells were stored at −80 ° C. […] In the case of NUDT9, enzyme was extracted in the freeze-thaw fraction and ammonium sulfate was added to 35% final concentration. The precipitate was discarded after centrifugation and ammonium sulfate was added to the supernatant to a final concentration of 50%. The precipitate was collected by centrifugation, dissolved, then chromatographed on a gel filtration column (Sephadex G-100). The active fractions containing the majority of the enzyme were pooled, concentrated by centrifugation in an Amicon Centriprep30, dialyzed, and chromatographed on DEAE-sepharose. The purified enzyme was concentrated from the pooled active fractions again using an Amicon Centriprep30. For the NUDT9 homology region of LTRPC2, the protein was extracted in the freeze-thaw fraction and ammonium sulfate was added to 35% final concentration and centrifuged. The precipitate was dissolved, dialyzed, and chromatographed on DEAE-sepharose. The purified enzyme was concentrated from the pooled active fractions by precipitation with 70% ammonium sulfate.
(§3) Enzyme Assay: Enzyme velocities were quantified by measuring the conversion of a phosphatase-insensitive substrate, ADPR, to the phosphatase-sensitive products, AMP and ribose-5-phosphate. The liberated inorganic orthophosphate was measured by the procedure of Ames and DubinENRfu^27. The standard incubation mixture ([…]) contained 50 mM Tris-Cl, pH 9.0, 16 mM MgCl2, 2 mM ADPR, 0.2-1 milliunitsof enzyme and 4 units of alkaline intestinal phosphatase. After 30 min at 37° C., the reaction was terminated by the addition of EDTA and inorganic orthophosphate was measured. A unit of enzyme hydrolyzes […] of substrate per min under these conditions. Note that 2 moles of phosphate are liberated per mole of ADPR hydrolyzed. Product determination: The standard assay mixture (minus alkaline intestinal phosphatase) was incubated for 30 min at 37° C. and terminated by the addition of […] of a mixture of four parts of Norit (20% packed volume) and one part of 7% HClO4 to remove adenine-containing nucleotides. After centrifugation, […] was adjusted to an alkaline pH and incubated for an additional 30 min at 37° C. with alkaline intestinal phosphatase to hydrolyze the ribose-5-phosphate formed.

The target in another experiment is T2, NUDT9 (Homo sapiens, UniProt Q9BW91).
T2 construct: made in house; host or cells: E. coli BL21 (DE3), pET-24d
T2 sequence (Q9BW91 47-350): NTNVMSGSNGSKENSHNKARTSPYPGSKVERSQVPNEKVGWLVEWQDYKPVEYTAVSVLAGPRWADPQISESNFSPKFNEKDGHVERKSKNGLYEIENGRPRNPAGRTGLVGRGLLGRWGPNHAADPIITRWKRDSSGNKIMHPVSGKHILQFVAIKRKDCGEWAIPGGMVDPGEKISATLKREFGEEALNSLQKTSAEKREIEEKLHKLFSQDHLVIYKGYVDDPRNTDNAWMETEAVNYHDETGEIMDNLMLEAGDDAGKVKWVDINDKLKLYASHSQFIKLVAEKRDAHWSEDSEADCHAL
Nature of the experiment: Nudix-type hydrolase activity towards a panel of substrates, NUDT9. It is filed as biochemical. The conditions noted are these: purified bacterially expressed NUDT9. As to the method: as §1, §2, §3

For the next experiment, the target named is T3, LTRPC2 (Homo sapiens, UniProt O94759).
T3 construct: beginning at amino acid 3 and extending to amino acid 1503; FLAG tag within the printed N-terminal leader […]; expressed in transfected cells
T3 sequence (O94759 3-1503): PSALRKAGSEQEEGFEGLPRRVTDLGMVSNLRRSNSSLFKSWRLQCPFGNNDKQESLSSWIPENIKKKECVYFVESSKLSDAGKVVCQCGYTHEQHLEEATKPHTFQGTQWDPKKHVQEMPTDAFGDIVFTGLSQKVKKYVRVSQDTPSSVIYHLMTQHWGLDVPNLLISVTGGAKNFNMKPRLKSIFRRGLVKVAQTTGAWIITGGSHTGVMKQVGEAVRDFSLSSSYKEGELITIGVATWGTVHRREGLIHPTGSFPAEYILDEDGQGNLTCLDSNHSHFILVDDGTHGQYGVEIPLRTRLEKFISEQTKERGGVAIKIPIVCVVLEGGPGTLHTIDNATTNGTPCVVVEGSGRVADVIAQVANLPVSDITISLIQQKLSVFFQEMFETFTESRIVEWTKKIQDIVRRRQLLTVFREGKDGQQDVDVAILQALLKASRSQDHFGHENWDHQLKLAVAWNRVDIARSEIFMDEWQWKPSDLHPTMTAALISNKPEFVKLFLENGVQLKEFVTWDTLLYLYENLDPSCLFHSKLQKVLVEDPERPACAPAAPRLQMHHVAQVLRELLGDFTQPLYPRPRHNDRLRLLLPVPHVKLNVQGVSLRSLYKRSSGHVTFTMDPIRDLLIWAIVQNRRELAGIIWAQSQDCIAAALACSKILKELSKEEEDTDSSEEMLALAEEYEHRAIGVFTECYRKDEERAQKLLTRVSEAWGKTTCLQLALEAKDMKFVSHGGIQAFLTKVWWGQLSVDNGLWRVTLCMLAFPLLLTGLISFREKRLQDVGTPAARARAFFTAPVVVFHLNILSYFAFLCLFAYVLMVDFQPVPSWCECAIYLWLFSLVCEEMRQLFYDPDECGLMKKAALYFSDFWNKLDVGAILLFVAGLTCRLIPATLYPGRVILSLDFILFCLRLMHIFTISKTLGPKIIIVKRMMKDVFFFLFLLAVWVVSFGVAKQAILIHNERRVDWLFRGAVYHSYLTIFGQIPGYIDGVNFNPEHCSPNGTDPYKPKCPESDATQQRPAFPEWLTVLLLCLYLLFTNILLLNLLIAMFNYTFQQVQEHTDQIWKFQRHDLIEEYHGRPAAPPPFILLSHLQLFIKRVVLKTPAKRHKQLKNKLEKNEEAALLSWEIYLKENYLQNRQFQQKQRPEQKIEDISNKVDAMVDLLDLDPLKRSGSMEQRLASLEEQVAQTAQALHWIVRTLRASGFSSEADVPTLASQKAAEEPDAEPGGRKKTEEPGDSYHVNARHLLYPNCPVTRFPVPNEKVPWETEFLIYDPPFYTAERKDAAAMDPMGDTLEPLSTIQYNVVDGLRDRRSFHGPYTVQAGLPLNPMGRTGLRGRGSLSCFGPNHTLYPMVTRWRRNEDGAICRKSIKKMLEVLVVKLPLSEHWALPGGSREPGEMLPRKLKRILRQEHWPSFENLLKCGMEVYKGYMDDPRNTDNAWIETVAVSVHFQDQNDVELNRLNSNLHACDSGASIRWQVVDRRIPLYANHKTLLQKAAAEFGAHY
The experiment is described as follows: ADPR-dependent gating of LTRPC2, whole-cell patch-clamp in tetracycline-induced HEK-293 cells expressing FLAG-LTRPC2. It is filed as cell-based. As to the method: 10^6 cells were analyzed for expression of a FLAG-reactive protein by anti-FLAG immunoprecipitation/anti-FLAG immunoblotting. […] The open symbols represent superimposed analyses of responses obtained from (i) wild-type HEK-293 cells (WT) perfused with standard internal solution in the absence of ADPR (n=3±sem); (ii) uninduced cells perfused with standard internal solution in the absence of ADPR (n=5±sem); (iii) uninduced HEK-293 cells perfused with standard solution containing 1 mM ADPR (n=3±sem); (iv) tet-induced HEK-293 cells perfused with standard internal solution without ADPR present (n=4±sem). […] The filled symbols indicate the time points at which individual high-resolution data traces were extracted for presentation as I/V curves in FIG. 3(F). […] Ramp currents were recorded in response of a standard voltage ramp stimulus (−100 mV to +100 mV in 50 ms).
FIG. 4 depicts the characterization of ADPR-dependent currents in LTRPC2-expressing in HEK-293 cells. […] HEK-293 cells expressing FLAG-LTRPC2 were perfused with defined ADPR concentrations ranging from […] to 1 mM, and currents were measured at −80 mV as in FIG. 3(D). The maximum current amplitude of individual cells was derived by analyzing the time course of current development (see e.g., FIGS. 3(C) and 3(D)) and fitting a Boltzmann curve to the rising phase of the developing cationic conductance. Peak current amplitudes were averaged and plotted versus ADPR concentration (n=5 to 12±sem). […] FIG. 4(B) depicts the kinetics of ADPR-dependent gating of LTRPC2. The temporal development of ADPR-gated currents was assessed as described in FIG. 4(A) by fitting a Boltzmann curve to the rising phase of the developing cationic conductance. The mid-point values of this analysis correspond to the time of half-maximal current activation, and are plotted as a function of ADPR concentration. […] HEK-293 cells expressing FLAG-LTRPC2 were perfused with 100 μM ADPR. 80 seconds into the experiment, and indicated by the bar, isotonic CaCl2 solution (120 mM CaCl2, 300 mOsm) was applied externally for 20 seconds.
Wild type and tetracycline-inducible HEK-293 FLAG-LTRPC2 expressing cells were cultured at 37° C./5% CO2 in DMEM supplemented with 10% FBS and 2 mM glutamine. The medium was supplemented with blasticidin (5 μg/ml; Invitrogen) and zeocin (0.4 mg/ml; Invitrogen). Cells were resuspended in media containing 1 μg/ml tetracycline (Invitrogen) 24 hours before experiments.
For patch-clamp experiments, cells grown on coverslips were transferred to the recording chamber and kept in a standard modified Ringer's solution of the following composition (in mM): NaCl 145, KCl 2.8, CaCl2 1, MgCl2 2, glucose 10, Hepes-NaOH 10, pH 7.2. Intracellular pipette-filling solutions contained (in mM): Cs-glutamate 145, NaCl 8, MgCl2 1, Cs-BAPTA 10, pH 7.2 adjusted with CsOH.

The subject of experiment [1] is ADPR-dependent current (IADPR) in human U937 monocytes. Nature of the experiment: Endogenous ADPR-dependent current (IADPR), whole-cell patch-clamp in U937 monocytes. Type of experiment: cell-based. The conditions noted are these: U937 cells; for pEC50: read-out: apparent EC50 for IADPR. As to the method:
FIG. 5 depicts the characterization of endogenous ADPR-dependent current(IADPR) in human U937 monocytes. […] In the right lane, the blot identifies LTRPC2 mRNA in native U937 cells. […] FIG. 5(B) depicts the temporal development of inward currents in U937 cells at −80 mV activated by different intracellular concentrations of ADPR in the presence of 10 mM BAPTA (n=4-11 each). FIG. 5(C) depicts the temporal development of inward currents in U937 cells at −80 mV activated by different intracellular concentrations of ADPR while [Ca^2+]i was buffered to 100 nM (n=5-7 each). FIG. 5(D) depicts the temporal development of inward currents in U937 cells at −80 mV activated by different intracellular concentrations of ADPR in the absence of exogenous buffers (n=5-9 each). […] Representative current record in response to a voltage ramp ranging from −100 to +100 mV over 50 ms. The record was obtained 100 s after whole-cell establishment from a cell perfused with 100 μM ADPR under unbuffered conditions.
For patch-clamp experiments, cells grown on coverslips were transferred to the recording chamber and kept in a standard modified Ringer's solution of the following composition (in mM): NaCl 145, KCl 2.8, CaCl2 1, MgCl2 2, glucose 10, Hepes-NaOH 10, pH 7.2. Intracellular pipette-filling solutions contained (in mM): Cs-glutamate 145, NaCl 8, MgCl2 1, Cs-BAPTA 10, pH 7.2 adjusted with CsOH. In some experiments, BAPTA was omitted from the pipette solution and 100 μM fura-2 was added for the purpose of fluorimetric monitoring of intracellular Ca^2+ concentration. […] The agonists were dissolved in the standard intracellular solution. Patch-clamp experiments were performed in the tight-seal whole-cell configuration at 21-25° C. High-resolution current recordings were acquired by a computer-based patch-clamp amplifier system (EPC-9, HEKA, Lambrecht, Germany). Patch pipettes had resistances between 2-4 MW after filling with the standard intracellular solution. Immediately following establishment of the 5 whole-cell configuration, voltage ramps of 50 ms duration spanning the voltage range of −100 to +100 mV were delivered from a holding potential of 0 mV at a rate of 0.5 Hz over a period of 200 to 400 seconds. All voltages were corrected for a liquid junction potential of 10 mV between external and internal solutions. Currents were filtered at 2.9 kHz and digitized at 100 μs intervals. Capacitive currents and series resistance were determined and corrected before each voltage ramp using the automatic capacitance compensation of the EPC-9. For analysis, the very first ramps prior to current activation were digitally filtered at 2 kHz, pooled and used for leak-subtraction of all subsequent current records. […]

The text below walks through data of patent US20020182635A1, “Methods of screening for LTRPC2 modulators” (priority 2000, published 2002).

pEC50: −log10 of the molar value. Like-named read-outs stand apart in the source and are kept apart here.

T1 sequence (O94759 1197-1503): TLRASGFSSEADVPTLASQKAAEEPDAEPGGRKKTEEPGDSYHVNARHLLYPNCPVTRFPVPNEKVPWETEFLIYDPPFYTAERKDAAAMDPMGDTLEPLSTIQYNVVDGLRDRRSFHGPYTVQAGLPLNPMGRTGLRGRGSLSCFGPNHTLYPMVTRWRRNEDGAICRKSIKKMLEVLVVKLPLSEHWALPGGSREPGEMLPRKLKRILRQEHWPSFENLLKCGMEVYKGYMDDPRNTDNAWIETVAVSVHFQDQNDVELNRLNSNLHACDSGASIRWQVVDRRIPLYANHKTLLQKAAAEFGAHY

`Nc1ncnc2c1ncn2[C@@H]1O[C@H](COP(=O)(O)OP(=O)(O)O[C@H]2O[C@H](CO)[C@@H](O)[C@H](O)[C@H]2O)[C@@H](O)[C@H]1O` [ADP-lucose]: the “hydrolysis as substrate by NUDT9-H” value at LTRPC2 NUDT9-H is “not hydrolyzed”. Moreover, the “hydrolysis as substrate by NUDT9” value on NUDT9 is “not hydrolyzed”.

Consider `Nc1ncnc2c1ncn2[C@@H]1O[C@H](COP(=O)(O)OP(=O)(O)OC[C@H]2OC(O)[C@H](O)[C@@H]2O)[C@@H](O)[C@H]1O` (stereo partly drawn) [ADPR, Adenosine 5-diphospho (ADP)-ribose], for which the “Hill coefficient of dose-response curve” value on LTRPC2 (HEK-293 cells expressing FLAG-LTRPC2, currents at −80 mV) was determined as 9. Also, the pEC50 is 4.05 at LTRPC2 (HEK-293 cells expressing FLAG-LTRPC2, intracellular perfusion, peak currents at −80 mV, read-out: apparent EC50 of ADPR-dependent gating of LTRPC2); 3.89 in experiment [1] ([Ca2+]i buffered to 100 nM); 4.40 in experiment [1] (unbuffered (exogenous buffers omitted)). Also, the “cells that generated currents above control levels” value on LTRPC2 (cells perfused with 60 μM ADPR or higher (n=38)) came out at 91%. The “intracellular concentration at which gating of the LTRPC2 channel begins” value on LTRPC2 (intracellular ADPR) was in the range of 60 to 100 µM. In addition, the “intracellular concentration at which saturation occurs” value at LTRPC2 (intracellular ADPR) is ~300 µM. In addition, the “membrane currents at −80 mV” value at LTRPC2 (tet-induced HEK-293 cells expressing FLAG-LTRPC2 perfused with 100 μM ADPR) is recorded as “large inward currents”. The Hill coefficient in experiment [1] ([Ca2+]i buffered to 100 nM) and in experiment [1] (unbuffered) was 8 each time.

Take `Nc1nc2c(ncn2[C@@H]2O[C@H](COP(=O)(O)OP(=O)(O)O[C@H]3O[C@H](CO)[C@@H](O)[C@H](O)[C@@H]3O)[C@@H](O)[C@H]2O)c(=O)[nH]1` [GDP-mannose]: the “hydrolysis as substrate by NUDT9-H” value at LTRPC2 NUDT9-H is “not hydrolyzed”. Also, the “hydrolysis as substrate by NUDT9” value at NUDT9 is listed as “not hydrolyzed”.

As to `NC(=O)C1=CN([C@@H]2O[C@H](COP(=O)(O)OP(=O)(O)OC[C@H]3O[C@@H](n4cnc5c(N)ncnc54)[C@H](O)[C@@H]3O)[C@@H](O)[C@H]2O)C=CC1` [NADH], on LTRPC2 NUDT9-H, the “hydrolysis as substrate by NUDT9-H” value is given as “not hydrolyzed”. The “hydrolysis as substrate by NUDT9” value on NUDT9 was “not hydrolyzed”.

With `NC(=O)c1ccc[n+]([C@@H]2O[C@H](COP(=O)([O-])OP(=O)(O)OC[C@H]3O[C@@H](n4cnc5c(N)ncnc54)[C@H](O)[C@@H]3O)[C@@H](O)[C@H]2O)c1` [NAD^+, nicotinamide adenine dinucleotide], the “hydrolysis as substrate by NUDT9-H” value on LTRPC2 NUDT9-H is reported as “not hydrolyzed”. The “hydrolysis as substrate by NUDT9” value at NUDT9 is “not hydrolyzed”.

On to `Nc1ccn([C@H]2C[C@H](O)[C@@H](COP(=O)(O)OP(=O)(O)OP(=O)(O)O)O2)c(=O)n1` [deoxy-CTP], for which, at LTRPC2 NUDT9-H, the “hydrolysis as substrate by NUDT9-H” value was “not hydrolyzed”. In addition, on NUDT9, the “hydrolysis as substrate by NUDT9” value is “not hydrolyzed”.

Turning to `Nc1nc2c(ncn2[C@H]2C[C@H](O)[C@@H](COP(=O)(O)OP(=O)(O)OP(=O)(O)O)O2)c(=O)[nH]1` [deoxy-GTP], on LTRPC2 NUDT9-H, the “hydrolysis as substrate by NUDT9-H” value is on record as “not hydrolyzed”. Further, the “hydrolysis as substrate by NUDT9” value on NUDT9 is listed as “not hydrolyzed”.

Turning to `Cc1cn([C@H]2C[C@H](O)[C@@H](COP(=O)(O)OP(=O)(O)OP(=O)(O)O)O2)c(=O)[nH]c1=O` [deoxy-TTP], the “hydrolysis as substrate by NUDT9-H” value on LTRPC2 NUDT9-H is listed as “not hydrolyzed”. In addition, the “hydrolysis as substrate by NUDT9” value on NUDT9 is listed as “not hydrolyzed”.
